14 compounds from PubChem BioAssay (NCI) can be followed below.

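Compound exposure: 48 hours, 5 concentrations, 96-well plates. The concentration for 50% growth inhibition is given as GI50. TGI is the concentration that stops growth completely.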 Some results are limits rather than exact numbers.

Among the test systems are OVCAR-5 ovarian; T-47D breast; CAKI-1 renal; MDA-MB-435; NCI-H226 lung; RPMI-8226 leukemia; SR leukemia; EKVX NSCLC; SW-620 colon; MCF7 breast.
Assay in all cases: NCI anticancer screen, dose series, 48 h

Take `C=CCC(N[C@@H](CO)c1ccccc1)c1ccc2ccccc2n1` (stereo not given in full): the GI50 is above 100 µM in the assay with OVCAR-5 ovarian; 61.1 µM in the assay on T-47D breast; above 100 µM in the assay with CAKI-1 renal; above 100 µM with MDA-MB-435; above 100 µM in the assay with NCI-H226 lung; 30.2 µM in the assay with RPMI-8226 leukemia. Further, the GI50 with SR leukemia was 17.2 µM; in the assay on EKVX NSCLC, above 100 µM; with SW-620 colon, above 100 µM. The TGI in the assay on OVCAR-5 ovarian, in the assay with T-47D breast, in the assay with CAKI-1 renal, in the assay on MDA-MB-435, in the assay with NCI-H226 lung and in the assay with RPMI-8226 leukemia was above 100 µM throughout. Also, the TGI in the assay with SR leukemia was 65.5 µM; in the assay with EKVX NSCLC it was above 100 µM; in the assay on SW-620 colon, above 100 µM.
Regarding `CCCCCCCCCCCC/C=C\CC[C@@H](O)[C@H](O)CC[C@H](O)[C@@H]1CC[C@@H](CCCCCCCC2=C[C@H](C)OC2=O)O1`, the GI50 was 4.76 µM in the assay with MCF7 breast; 2.85 µM in the assay on T-47D breast; 11.4 µM in the assay with MDA-MB-435; 13.3 µM in the assay with NCI-H226 lung; 1.43 µM in the assay with RPMI-8226 leukemia; 11.6 µM with EKVX NSCLC. Further, the GI50 with SW-620 colon is 23.4 µM. The TGI with MCF7 breast came out at 34.6 µM; with OVCAR-5 ovarian it was 38.4 µM; in the assay on T-47D breast, 21.5 µM; with CAKI-1 renal it was 35.7 µM; in the assay with NCI-H226 lung, 34.3 µM; in the assay on RPMI-8226 leukemia it was 3.87 µM. Moreover, the TGI is 28.9 µM in the assay with EKVX NSCLC and above 100 µM with SW-620 colon.
On to `Fc1ccccc1CN1COc2c(cc(Cl)c3cccnc23)C1`, for which the TGI with MCF7 breast was 13.7 µM; in the assay on OVCAR-5 ovarian it was 15.3 µM; with T-47D breast, 18.4 µM; in the assay with CAKI-1 renal it was 9.93 µM; with MDA-MB-435 it was 8.27 µM; in the assay on NCI-H226 lung it was 2.97 µM. Besides, the TGI in the assay with SR leukemia worked out at 3.85 µM; in the assay with EKVX NSCLC, 2.72 µM; in the assay with SW-620 colon, 18.4 µM.
For the compound `Nc1ccc(CC[C@H]2CCC/C=C/[C@@H]3C[C@H](O)C[C@H]3[C@H](O)/C=C/C(=O)O2)cc1`, the GI50 in the assay on OVCAR-5 ovarian is 0.0481 µM; in the assay on T-47D breast, 0.0751 µM; in the assay on CAKI-1 renal it was 0.0349 µM; in the assay with MDA-MB-435 it was 0.0388 µM; with NCI-H226 lung, 0.0226 µM; with RPMI-8226 leukemia, 0.0322 µM. The values for the GI50 in the assay on SR leukemia, in the assay on EKVX NSCLC and in the assay on SW-620 colon were 0.0348 µM, 0.0374 µM and 0.0329 µM, respectively. In addition, the TGI is above 78.1 µM in the assay with OVCAR-5 ovarian; above 100 µM in the assay on T-47D breast; 1.47 µM with CAKI-1 renal; 25.2 µM in the assay with MDA-MB-435; 0.0704 µM with NCI-H226 lung; 0.121 µM with RPMI-8226 leukemia. Further, the figures for the TGI in the assay with SR leukemia, in the assay with EKVX NSCLC and in the assay on SW-620 colon were 7.51 µM, 2.49 µM and 0.203 µM, respectively.
`N=C(N)c1ccc2oc3ccc(C(=N)N)cc3c(=O)c2c1`: the TGI with MCF7 breast, in the assay with OVCAR-5 ovarian, in the assay with T-47D breast, in the assay on CAKI-1 renal, with MDA-MB-435 and in the assay on NCI-H226 lung was above 100 µM each time. Moreover, the TGI in the assay on RPMI-8226 leukemia and with SW-620 colon was above 100 µM each time.
As to `CC(C)(O)C1COC2=C1C(=O)c1ccccc1C2=O` (stereo not given), the TGI in the assay with MCF7 breast is 40.1 µM; in the assay on OVCAR-5 ovarian, 54 µM; in the assay with T-47D breast it was above 100 µM; in the assay on CAKI-1 renal it was above 100 µM; in the assay with MDA-MB-435 it was 44.6 µM; in the assay on NCI-H226 lung, above 100 µM. The TGI is above 100 µM with RPMI-8226 leukemia, above 100 µM in the assay on EKVX NSCLC and 50.4 µM in the assay with SW-620 colon.
On to `CCn1cc(C(=O)O)c(=O)c2cc(F)c(N3CCN(S(=O)(=O)c4ccc(Cl)cc4Cl)CC3)cc21`, for which the GI50 was 2.95 µM in the assay on MCF7 breast; 3.43 µM with OVCAR-5 ovarian; 3.11 µM in the assay with T-47D breast; 2.01 µM in the assay on CAKI-1 renal; 1.97 µM with MDA-MB-435; 2.6 µM in the assay with NCI-H226 lung. Further, the GI50 is 2.55 µM in the assay with RPMI-8226 leukemia and 3.91 µM with SW-620 colon. Also, the TGI with MCF7 breast is 15.2 µM; in the assay with OVCAR-5 ovarian it was above 100 µM; in the assay with T-47D breast it was 9.71 µM; with CAKI-1 renal, 4.8 µM; in the assay on MDA-MB-435 it was 4.44 µM; with NCI-H226 lung, 7.88 µM. The TGI is 7.59 µM with RPMI-8226 leukemia and above 100 µM in the assay on SW-620 colon.
As to `Clc1ccc(C=Nc2ccc(-c3nc4ccccc4[nH]3)cc2)cc1`, the GI50 was above 100 µM in the assay on MCF7 breast; above 100 µM in the assay with OVCAR-5 ovarian; 55.1 µM in the assay with T-47D breast; above 100 µM in the assay on CAKI-1 renal; above 100 µM in the assay on MDA-MB-435; above 100 µM in the assay on NCI-H226 lung. Besides, the GI50 with RPMI-8226 leukemia, in the assay on EKVX NSCLC and in the assay with SW-620 colon was above 100 µM in each case. Moreover, the TGI in the assay with MCF7 breast, with OVCAR-5 ovarian, with T-47D breast, with CAKI-1 renal, with MDA-MB-435 and with NCI-H226 lung was above 100 µM throughout. The TGI in the assay on RPMI-8226 leukemia, in the assay with EKVX NSCLC and in the assay with SW-620 colon was above 100 µM each time.
As to `COc1cc(C2CC(c3ccccc3)=NN2C=O)ccc1Oc1ccnc2cc(Cl)ccc12` (stereo not given), the GI50 is 5.7 µM in the assay on MCF7 breast; above 100 µM in the assay on OVCAR-5 ovarian; 10.3 µM in the assay with T-47D breast; 5.2 µM in the assay on CAKI-1 renal; 5.24 µM with NCI-H226 lung; above 100 µM in the assay on SR leukemia. Also, the results for the GI50 in the assay with EKVX NSCLC and in the assay with SW-620 colon were 3.67 µM and above 100 µM, respectively. Further, the TGI is above 100 µM with MCF7 breast; above 100 µM in the assay on OVCAR-5 ovarian; 39.7 µM in the assay with T-47D breast; above 100 µM in the assay on CAKI-1 renal; above 100 µM in the assay with NCI-H226 lung; above 100 µM in the assay with SR leukemia. Further, the TGI in the assay on EKVX NSCLC and with SW-620 colon was above 100 µM in each case.
For the compound `COc1cc(N=Nc2cc(Cc3ccc(N(C)C)cc3)c(N)cc2N(C)C)c2ncccc2c1`, the GI50 was 0.21 µM with MCF7 breast; 0.801 µM in the assay on OVCAR-5 ovarian; 0.211 µM with T-47D breast; 0.408 µM in the assay on CAKI-1 renal; 0.515 µM in the assay with MDA-MB-435; 0.754 µM in the assay on NCI-H226 lung. For the same compound, the GI50 with RPMI-8226 leukemia was 0.313 µM; in the assay with EKVX NSCLC, 0.332 µM; in the assay with SW-620 colon, 0.374 µM. For the same compound, the TGI in the assay with MCF7 breast came to 0.855 µM; in the assay on OVCAR-5 ovarian, 2.66 µM; in the assay with T-47D breast it was 2 µM; in the assay on CAKI-1 renal, 2.37 µM; with MDA-MB-435, 2.07 µM; with NCI-H226 lung, 8.28 µM. The figures for the TGI in the assay on RPMI-8226 leukemia, with EKVX NSCLC and with SW-620 colon were 2.1 µM, 1.98 µM and 2.16 µM, respectively.
With `Nc1ncn([C@H]2CC(O)[C@@H](CO)S2)c(=O)n1` (stereo not given in full), the GI50 in the assay with MCF7 breast was 0.382 µM; with OVCAR-5 ovarian it was 23.3 µM; in the assay with T-47D breast, above 100 µM; with CAKI-1 renal it was 1.99 µM; in the assay with MDA-MB-435 it was 0.783 µM; with NCI-H226 lung, 20.3 µM. Further, the results for the GI50 with RPMI-8226 leukemia, in the assay on EKVX NSCLC and with SW-620 colon were 6.22 µM, 32.8 µM and 1.48 µM, respectively. The TGI in the assay on MCF7 breast, with OVCAR-5 ovarian, in the assay with T-47D breast, in the assay with CAKI-1 renal, in the assay on MDA-MB-435 and in the assay with NCI-H226 lung was above 100 µM throughout. The TGI with RPMI-8226 leukemia, with EKVX NSCLC and in the assay with SW-620 colon was above 100 µM throughout.
Take `COC(=O)c1c(C)nc(C)c2c1C(=O)C(Br)=C(NCc1ccccc1)C2=O`: the GI50 with MCF7 breast is 1.3 µM; in the assay on OVCAR-5 ovarian it was 3.11 µM; in the assay with T-47D breast it was 2.26 µM; with CAKI-1 renal it was 5.66 µM; in the assay with MDA-MB-435 it was 1.86 µM; in the assay with NCI-H226 lung, 4.01 µM. Moreover, the GI50 in the assay with RPMI-8226 leukemia was 3.24 µM; with EKVX NSCLC, 2.12 µM; with SW-620 colon it was 3.39 µM. Besides, the TGI with MCF7 breast worked out at 3.29 µM; in the assay on OVCAR-5 ovarian, 7.9 µM; in the assay with T-47D breast, 5 µM; in the assay with CAKI-1 renal, 18.7 µM; in the assay on MDA-MB-435 it was 3.38 µM; in the assay with NCI-H226 lung, 18 µM. The TGI with RPMI-8226 leukemia worked out at 11.7 µM; in the assay on EKVX NSCLC, 5.35 µM; in the assay on SW-620 colon, 10.7 µM.
Turning to `COc1cc2ncn(-c3cc(OCc4ccccc4C(F)(F)F)c(C(N)=O)s3)c2cc1OC`, the GI50 with MCF7 breast is 0.0282 µM; in the assay on OVCAR-5 ovarian, 0.178 µM; in the assay on T-47D breast, 4.42 µM; in the assay with CAKI-1 renal it was 3.88 µM; in the assay with MDA-MB-435 it was 0.0552 µM; in the assay with NCI-H226 lung it was 1.01 µM. Moreover, the GI50 is 0.278 µM in the assay on RPMI-8226 leukemia, 3.69 µM in the assay on EKVX NSCLC and 0.0822 µM in the assay with SW-620 colon. In addition, the TGI in the assay with MCF7 breast was above 25 µM; in the assay on OVCAR-5 ovarian, above 25 µM; with T-47D breast it was above 25 µM; with CAKI-1 renal, above 25 µM; with MDA-MB-435, 0.282 µM; in the assay on NCI-H226 lung, above 25 µM. The TGI with RPMI-8226 leukemia, in the assay on EKVX NSCLC and with SW-620 colon was above 25 µM in each case.
Turning to `CN1C2C=CC(=O)C1C1C(=O)N(c3ccccc3)C(=O)C12` (stereo not given), the GI50 in the assay on MCF7 breast was 4.01 µM; with OVCAR-5 ovarian, 5.95 µM; with T-47D breast, 5.65 µM; with CAKI-1 renal it was 1.66 µM; in the assay on MDA-MB-435, 3.44 µM; in the assay with NCI-H226 lung, 17.6 µM. The GI50 in the assay with EKVX NSCLC is 14.4 µM; in the assay on SW-620 colon, 3.09 µM. Also, the TGI in the assay on MCF7 breast was 16.5 µM; in the assay with OVCAR-5 ovarian, 21.6 µM; in the assay on T-47D breast, 22.6 µM; with CAKI-1 renal it was 4.27 µM; in the assay on MDA-MB-435, 22.8 µM; in the assay on NCI-H226 lung it was 57.3 µM. Also, the TGI was found to be 32.7 µM in the assay with EKVX NSCLC and 10.7 µM with SW-620 colon.
